The values below are quoted from earlier work in patent US20120178700A1, “PEPTIDOMIMETIC MACROCYCLES” (Aileron Therapeutics, Inc., priority 2008, published 2012).

One series concerns the target c-Myc/Max dimerization (Homo sapiens, UniProt P01106). The following applies: for preference for inhibition of c-Myc/Max association over related transcription factors: in the presence of their DNA binding motif in vitro.
Series [1] has as its system c-Myc-dependent oncogenic transformation. The following applies: versus transformation dependent on Jun.

Sequence of c-Myc/Max dimerization (P01106 whole entry): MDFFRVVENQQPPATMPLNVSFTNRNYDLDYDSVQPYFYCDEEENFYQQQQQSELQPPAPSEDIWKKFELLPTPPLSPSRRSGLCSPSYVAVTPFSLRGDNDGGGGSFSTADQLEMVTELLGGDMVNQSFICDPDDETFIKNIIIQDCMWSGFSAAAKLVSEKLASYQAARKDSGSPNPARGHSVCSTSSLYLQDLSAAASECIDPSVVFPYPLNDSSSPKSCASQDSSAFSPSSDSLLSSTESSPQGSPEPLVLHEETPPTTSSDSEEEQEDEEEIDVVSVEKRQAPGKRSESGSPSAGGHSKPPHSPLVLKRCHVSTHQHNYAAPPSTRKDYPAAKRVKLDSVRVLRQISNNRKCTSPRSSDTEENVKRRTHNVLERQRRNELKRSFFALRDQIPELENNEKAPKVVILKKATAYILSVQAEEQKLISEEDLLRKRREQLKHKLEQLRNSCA

For `CN(C)CCCNc1cc(O)c2c(c1O)C(=O)c1ccccc1C2=O` [MYRA-A], the c-Myc/Max dimerization result on c-Myc/Max dimerization is recorded as “without interfering”. In addition, the “inhibition of DNA binding of Myc family proteins” value in the series on Myc family proteins was “inhibit DNA binding”.
Take `COc1ccc(CNC(=O)c2cc3nc(-c4cccs4)cc(C(F)(F)F)n3n2)cc1` [Mycro1]: the “preference for inhibition of c-Myc/Max association over related transcription factors” value at c-Myc/Max dimerization was “show a preference”.
Regarding `O=C(NCc1cccs1)c1cc2nc(-c3cccs3)cc(C(F)(F)F)n2n1` [Mycro2], the “preference for inhibition of c-Myc/Max association over related transcription factors” value at c-Myc/Max dimerization is “show a preference”.
Consider `COc1ccc(CN(C(=O)c2ccccn2)C(C(=O)NC2CCCCC2)c2ccc3cc(OCC(=O)OC(C)(C)C)ccc3c2)cc1` (centres unmarked) [NY2267], for which the “inhibition of c-Myc-dependent oncogenic transformation” value in series [1] is “inhibited c-Myc-dependent oncogenic transformation with preference over transformation dependent on Jun”.
